How the values were obtained:
SREBP2 = assay: Immunofluorescence of SREBP2 nuclear translocation; type: cell-based, human; conditions: Huh7 cells, peptide 15 μM, IGF1 100 ng/mL 8 h
Description: For endogenous SREBP1 and SREBP2 staining, the cells were washed with ice‐cold PBS and fixed with 4% paraformaldehyde in PBS at room temperature (around 20–25 °C) for 15 min. Then, the cells were treated with 0.1% Triton X‐100 for 5 min and blocked in 3% BSA for 1 h at room temperature. The cells were then incubated with primary antibody against SREBP1 (diluted 1:200) or SREBP2 (diluted 1:200) overnight at 4 °C. After incubation with fluorescent‐dye‐conjugated secondary antibody (diluted 1:1000; Thermo Fisher Scientific) in PBS containing 0.05% saponin, 5% goat serum and 0.5% BSA for 1 h at room temperature followed by DAPI (diluted 1:10 000; Thermo Fisher Scientific) staining of the cell nucleus for 10 min. Cells were examined using a laser confocal microscope (Zeiss LSM 900).
a) Following pretreatment with Insig1/2 loop 1 peptide (15 μM) and IGF1 stimulation (100 ng ml⁻¹, 8 h), Huh7 cells were subjected to immunofluorescence analysis (scale bar: 10 μm).

Hep3B cells = assay: Cell proliferation, Hep3B; type: cell-based, human; conditions: peptide 25 μM 1 h, IGF1 100 ng/mL 72 h, automated cell counting, n = 3
Description: Cells were seeded in 96‐well plates at a density of 5000 cells per well in 100 µL complete growth medium. Following a 24‐hour incubation period (37 °C, 5% CO2) to permit cell adherence, the culture medium was replaced with fresh low serum contained complete medium containing either Insig1/2 loop1 peptide (0–100 µM concentration range) or PBS. Cells were maintained under these conditions for 72 hours. After treatment, the culture medium was carefully aspirated, and cells were washed twice with 200 µL phosphate‐buffered saline (PBS, pH 7.4). Fixed was performed using 4% paraformaldehyde (100 µL/well) for 15 min at room temperature, followed by three PBS washes (200 µL/well) to remove residual fixative. 0.1% (w/v) crystal violet staining solution was prepared by dissolving crystal violet powder in 10% ethanol, followed by filtration through a 0.22 µm membrane. Each well received 80 µL of staining solution and was incubated for 15 min at room temperature, protected from light. […] Plates were agitated at 200 rpm for 10 min to ensure complete dissolution before measuring absorbance at 582 nm using a microplate reader. […]
g) Cell proliferation was assessed by automated cell counting after 72 h of IGF1 stimulation (100 ng ml⁻¹) in Hep3B cells pretreated with Insig1/2 loop 1 peptide (25 μM) for 1 h.

tumor cell apoptosis = assay: TUNEL assay of tumor tissues; type: in vivo, BALB/c athymic nude mice; conditions: cryosections of Huh7 tumors, n = 4; peptide given as LNP 10 mg/kg iv; lenvatinib mesylate 2 mg/kg oral
Description: Representative micrographs are shown (scale bar: 20 µm). b,c) Cryosections of mouse tumor tissues were prepared for histological analysis. (b) Lipid accumulation was assessed by Oil Red O staining. Representative micrographs are shown (scale bar: 20 µm). (c) Apoptotic cells were detected by TUNEL assay. Representative micrographs are shown (scale bar: 20 µm). d,e) Quantitative analysis of (d) apoptotic areas (TUNEL‐positive regions) and (e) lipid droplet counts (Oil Red O‐positive particles) was performed. Data represent the mean ± SD (n = 4). Statistical significance was determined by one‐way analysis of variance (ANOVA). ** p < 0.01, **** p < 0.0001, ns, no significance.
Mouse tumor tissues were sectioned at 5 µm thickness. Apoptotic cells were counted using the colorimetric TUNEL System (Beyotime, C1091) according to the manufacturer's instructions. The total numbers of apoptotic cells were counted in six high‐power fields and presented as an average number of apoptotic cells per high‐power fields.

RKKRRQRRRLYPCIDSHLGEPHKFKRE [Insig1/2 loop 1 peptide]
IGF1-induced nuclear translocation of SREBP2 (SREBP2): inhibited
IGF1-induced increase in proliferation (Hep3B cells): inhibited
cell apoptosis in tumor tissues (TUNEL) (tumor cell apoptosis): induced cell apoptosis in tumor tissues

From article PMC12677653, “Inhibition of Tumor Lipogenesis and Growth by Peptide‐Based Targeting of SREBP Activation” (Advanced Science, 2025)
